From the supplement of paper PMC10307832

These cell lines were tested with CN1CCN(CC1)C2=CC(=C(C=C2)NC3=NC=C4C(=N3)N(C5=CC=CC=C5C(=O)N4C)C)OC [XMD8-85] + Cc1nc(NC(=O)N2CCC[C@H]2C(N)=O)sc1-c1ccnc(C(C)(C)C(F)(F)F)c1 [Alpelisib] (partner 2 µM) (assay: relative viability (nuclei count vs DMSO), 5 days (fraction); higher = more cells survive). Conditions: first compound 8 µM.
Summary of the method: (§1)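 Lung cancer cell lines, seeded in 1536-well plates, were treated the following day by pin tool with a single drug or with five library-drug doses (not always all listed) in √10 steps on top of a fixed anchor-drug dose. Cells were fixed and nuclei stained in one step after 5 days, and nuclei were counted. Relative viability is the nuclei count for treated wells divided by that for vehicle wells, reported as medians of duplicate plates.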

Cell Line	relative viability
LCLC-97TM1	0.36
LCLC-103H	0.728
NCI-H1299	0.874
NCI-H1563	0.709
NCI-H1703	0.265
NCI-H2170	0.495

What follows are cell lines tested with O=C(O)C(Cc1ccccc1[N+](=O)[O-])=NNc1nc(-c2ccc(Cl)c(Cl)c2)cs1 (mixture of isomers) [4EGI-1] + CC(=O)Nc1cccc(-n2c(=O)n(C3CC3)c(=O)c3c(Nc4ccc(I)cc4F)n(C)c(=O)c(C)c32)c1 [Trametinib] (partner 0.02 µM) in the same assay as above. Conditions: first compound 0.5 µM.
Summary of the method: as §1

Cell Line	relative viability
201T	0.714
A-427	0.891
BEN	1.32
CAL-12T	0.348
COR-L23	0.898
COR-L 105	0.462
ChaGo-K-1	0.911
EKVX	0.436
EMC-BAC-2	0.989
EPLC-272H	0.308
H3255	0.679
HARA	0.882
HCC-15	0.405
HCC-44	1.04
HCC-78	1.18
HCC-366	0.454
HCC-827	0.575
HOP-62	0.415
LC-2-ad	0.919
LCLC-97TM1	0.212
LCLC-103H	0.684
NCI-H522	0.787
NCI-H1648	0.574
NCI-H1650	0.658
NCI-H2170	0.956
NCI-H2342	0.894
SW 900	1.11

Same assay, conditions: first compound 1.581 µM

Cell Line	relative viability
201T	0.705
BEN	1.05
COR-L23	0.336
COR-L 105	0.444
ChaGo-K-1	0.845
HARA	0.632
HCC-15	0.378
HCC-44	0.948
HCC-366	0.272
HCC-827	0.458
HOP-62	0.356
LC-2-ad	0.886
LCLC-103H	0.634
NCI-H522	0.681
NCI-H1648	0.506
NCI-H2170	0.773
NCI-H2342	0.802
SW 900	0.8

Same assay, conditions: first compound 5 µM

Cell Line	relative viability
201T	0.742
A-427	0.774
BEN	1.18
CAL-12T	0.358
COR-L23	0.628
COR-L 105	0.44
ChaGo-K-1	0.896
EKVX	0.351
EMC-BAC-2	0.928
EPLC-272H	0.339
H3255	0.614
HARA	0.944
HCC-15	0.392
HCC-44	0.994
HCC-78	0.733
HCC-366	0.429
HCC-827	0.611
HOP-62	0.329
LC-2-ad	0.855
LCLC-97TM1	0.188
LCLC-103H	0.626
NCI-H522	0.847
NCI-H1648	0.471
NCI-H1650	0.643
NCI-H2170	0.876
NCI-H2342	0.881
SW 900	0.773

Same assay, conditions: first compound 15.81 µM

Cell Line	relative viability
201T	0.744
A-427	0.742
BEN	0.976
CAL-12T	0.281
COR-L23	0.415
COR-L 105	0.401
ChaGo-K-1	0.942
EKVX	0.239
EMC-BAC-2	0.878
EPLC-272H	0.249
HARA	0.539
HCC-15	0.375
HCC-44	0.921
HCC-78	0.674
HCC-366	0.262
HOP-62	0.28
LC-2-ad	0.843
LCLC-97TM1	0.197
LCLC-103H	0.581
NCI-H522	0.859
NCI-H1648	0.526
NCI-H1650	0.275
NCI-H2170	0.866
NCI-H2342	0.98
SW 900	0.584

Same assay, conditions: first compound 50 µM

Cell Line	relative viability
201T	0.636
A-427	0.384
BEN	0.901
CAL-12T	0.191
COR-L23	0.16
COR-L 105	0.394
ChaGo-K-1	0.592
EKVX	0.268
EMC-BAC-2	0.652
EPLC-272H	0.226
H3255	0.523
HARA	0.211
HCC-15	0.281
HCC-44	0.507
HCC-78	0.788
HCC-366	0.0891
HCC-827	0.505
HOP-62	0.234
LC-2-ad	0.595
LCLC-97TM1	0.127
LCLC-103H	0.465
NCI-H522	0.677
NCI-H1648	0.304
NCI-H1650	0.182
NCI-H2170	0.645
NCI-H2342	0.906
SW 900	0.173

What follows are cell lines tested with O=C(O)C(Cc1ccccc1[N+](=O)[O-])=NNc1nc(-c2ccc(Cl)c(Cl)c2)cs1 (mixture of isomers) [4EGI-1] + CCNC(=O)c1noc(-c2cc(C(C)C)c(O)cc2O)c1-c1ccc(CN2CCOCC2)cc1 [Luminespib] (partner 0.01 µM) in the same assay as above. Conditions: first compound 0.5 µM.
Summary of the method: as §1

Cell Line	relative viability
201T	1.08
